# Target: T1, mGlyT-1b (Mus musculus, UniProt P28571)
# T1 construct: host or cells: Flp-in-CHO cells
# T1 sequence (P28571 1-651 isoform P28571-2): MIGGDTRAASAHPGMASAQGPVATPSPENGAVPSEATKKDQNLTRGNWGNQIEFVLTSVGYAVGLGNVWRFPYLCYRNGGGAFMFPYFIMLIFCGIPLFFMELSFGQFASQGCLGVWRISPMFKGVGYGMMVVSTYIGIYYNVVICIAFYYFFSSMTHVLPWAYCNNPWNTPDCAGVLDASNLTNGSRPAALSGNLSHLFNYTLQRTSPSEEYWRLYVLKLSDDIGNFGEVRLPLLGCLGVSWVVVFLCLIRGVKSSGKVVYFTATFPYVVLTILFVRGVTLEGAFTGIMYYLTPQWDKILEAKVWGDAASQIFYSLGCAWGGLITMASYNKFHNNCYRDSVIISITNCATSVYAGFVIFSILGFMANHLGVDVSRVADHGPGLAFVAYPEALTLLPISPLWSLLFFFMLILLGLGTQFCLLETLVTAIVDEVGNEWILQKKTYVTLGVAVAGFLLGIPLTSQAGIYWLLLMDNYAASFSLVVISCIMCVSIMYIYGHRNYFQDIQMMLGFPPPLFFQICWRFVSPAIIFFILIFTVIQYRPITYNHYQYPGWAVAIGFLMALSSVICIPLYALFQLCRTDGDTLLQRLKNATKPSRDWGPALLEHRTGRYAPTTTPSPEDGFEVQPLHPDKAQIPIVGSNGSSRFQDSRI
# Assay: Glycine Uptake Inhibition Assay (mGlyT-1b)
# Assay type: cell-based
# Settings: [3H]-glycine uptake inhibition at GlyT-1, Flp-in-CHO cells transfected with mGlyT-1b cDNA
# Experimental: DMEM complete medium: Nutrient mixture F-12 (Gibco Life-technologies), fetal bovine serum (FBS) 5%, (Gibco life technologies), Penicillin/Streptomycin 1% (Gibco life technologies), Hygromycin 0.6 mg/ml (Gibco life technologies), Glutamine 1 mM Gibco life technologies)
# Uptake buffer (UB): 150 mM NaCl, 10 mM Hepes-Tris, pH 7.4, 1 mM CaCl2, 2.5 mM KCl, 2.5 mM MgSO4, 10 mM (+) D-glucose. Flp-in™-CHO (Invitrogen Cat n^o R758-07) cells stably transfected with mGlyT1b cDNA.
# Glycine Uptake Inhibition Assay (mGlyT-1b)
# On day 1 mammalian cells, (Flp-in™-CHO), transfected with mGlyT-1b cDNA, were plated at the density of 40,000 cells/well in complete F-12 medium, without hygromycin in 96-well culture plates. On day 2, the medium was aspirated, and the cells were washed twice with uptake buffer (UB). The cells were then incubated for 20 min at 22° C. with either (i) no potential competitor, (ii) 10 mM non-radioactive glycine, (iii) a concentration of a potential inhibitor. A range of concentrations of the potential inhibitor was used to generate data for calculating the concentration of inhibitor resulting in 50% of the effect (e.g. IC50, the concentration of the competitor inhibiting glycine uptake of 50%).
# A solution was then immediately added containing [^3H]-glycine 60 nM (11-16 Ci/mmol) and 25 μM non-radioactive glycine. The plates were incubated with gentle shaking, and the reaction was stopped by aspiration of the mixture and washing (three times) with ice-cold UB. The cells were lysed with scintillation liquid, shaken 3 hours and the radioactivity in the cells counted using a scintillation counter.
row,IC50,Structure (SMILES)
1,46 nM,"CC(Oc1ccc(S(C)(=O)=O)cc1C(=O)N1CCN(c2ccc(C(F)(F)F)cc2)CC1)C1CC1 (racemic) [Example 104, Rac-[2-(1-Cyclopropyl-ethoxy)-5-methanesulfonyl-phenyl]-[4-(4-trifluoromethyl-phenyl)-piperazin-1-yl]-methanone]"
2,23 nM,CC(Oc1ccc(S(C)(=O)=O)cc1C(=O)N1CCN(c2ccc(C#N)c(F)c2F)CC1)C(F)(F)F (racemic) [compound 207]
3,32 nM,CC(Oc1ccc(S(C)(=O)=O)cc1C(=O)N1CCN(c2ccc(Cl)cc2C#N)CC1)C(F)(F)F (racemic) [compound 256]
4,86 nM,CC(Oc1ccc(S(C)(=O)=O)cc1C(=O)N1CCN(c2ccc(Cl)c(Cl)c2)CC1)C(F)(F)F (racemic) [compound 258]
5,43 nM,CC(Oc1ccc(S(C)(=O)=O)cc1C(=O)N1CCN(c2c(F)cc(C#N)cc2F)CC1)C(F)(F)F (racemic) [compound 260]
6,43 nM,CC(Oc1ccc(S(C)(=O)=O)cc1C(=O)N1CCN(c2cc(F)c(C#N)cc2F)CC1)C(F)(F)F (racemic) [compound 261]
7,42 nM,CC(Oc1ccc(S(C)(=O)=O)cc1C(=O)N1CCN(c2cc(F)c(C#N)c(F)c2)CC1)C(F)(F)F (racemic) [compound 262]
8,21 nM,CC(Oc1ccc(S(C)(=O)=O)cc1C(=O)N1CCN(c2ccc(C#N)cc2)CC1)C(F)(F)F (racemic) [compound 298]
9,44 nM,CC(Oc1ccc(S(C)(=O)=O)cc1C(=O)N1CCN(c2ccc(C#N)cc2F)CC1)C(F)(F)F (racemic) [compound 299]
10,16 nM,CC(Oc1ccc(S(C)(=O)=O)cc1C(=O)N1CCN(c2ccc(C#N)c(F)c2)CC1)C(F)(F)F (racemic) [compound 300]
11,13 nM,CC(Oc1ccc(S(C)(=O)=O)cc1C(=O)N1CCN(c2ccc(C(F)(F)F)cc2F)CC1)C(F)(F)F (racemic) [compound 302]
12,6 nM,CC(Oc1ccc(S(C)(=O)=O)cc1C(=O)N1CCN(c2ccc(C(F)(F)F)c(F)c2)CC1)C(F)(F)F (racemic) [compound 303]
13,31 nM,CCC(C)Oc1ccc(S(C)(=O)=O)cc1C(=O)N1CCN(c2ccc(C(C)=O)cc2F)CC1 (racemic) [compound 319]
14,18 nM,CCC(C)Oc1ccc(S(C)(=O)=O)cc1C(=O)N1CCN(c2ccc(C#N)cc2F)CC1 (racemic) [compound 321]
15,28 nM,CCC(C)Oc1ccc(S(C)(=O)=O)cc1C(=O)N1CCN(c2ccc(C#N)c(F)c2)CC1 (racemic) [compound 322]
16,39 nM,CCC(C)Oc1ccc(S(C)(=O)=O)cc1C(=O)N1CCN(c2ccc(C(F)(F)F)cc2F)CC1 (racemic) [compound 324]
17,33 nM,CCC(C)Oc1ccc(S(C)(=O)=O)cc1C(=O)N1CCN(c2ccc(C(F)(F)F)c(F)c2)CC1 (racemic) [compound 325]
18,27 nM,CC(Oc1ccc(S(C)(=O)=O)cc1C(=O)N1CCN(c2ncc(C(F)(F)F)cc2Cl)CC1)C(F)(F)F (racemic) [compound 407]
19,37 nM,CC(Oc1ccc(S(C)(=O)=O)cc1C(=O)N1CCN(c2ccc(C(F)(F)F)cn2)CC1)C(F)(F)F (racemic) [compound 408]
20,29 nM,CC(Oc1ccc(S(C)(=O)=O)cc1C(=O)N1CCN(c2ccc(Br)cn2)CC1)C(F)(F)F (racemic) [compound 435]

row,IC50,Structure (SMILES)
1,47 nM,CC(Oc1ccc(S(C)(=O)=O)cc1C(=O)N1CCN(c2ncc(C(F)(F)F)cc2F)CC1)C(F)(F)F (racemic) [compound 438]
2,40 nM,CC(Oc1ccc(S(C)(=O)=O)cc1C(=O)N1CCN(c2cccc(C(F)(F)F)n2)CC1)C(F)(F)F (racemic) [compound 459]
3,30 nM,C[C@H](Oc1ccc(S(C)(=O)=O)cc1C(=O)N1CCN(c2ncc(C(F)(F)F)cc2F)CC1)C(F)(F)F (racemic) [compound 470]
4,19 nM,CNS(=O)(=O)c1ccc(OC(C)C(F)(F)F)c(C(=O)N2CCN(c3ccc(C(F)(F)F)cc3)CC2)c1 (racemic) [compound 554]
5,42 nM,CNS(=O)(=O)c1ccc(OC(C)C(F)(F)F)c(C(=O)N2CCN(c3cc(F)c(C#N)cc3F)CC2)c1 (racemic) [compound 557]
6,29 nM,CNS(=O)(=O)c1ccc(OC(C)C(F)(F)F)c(C(=O)N2CCN(c3ccc(C#N)c(F)c3F)CC2)c1 (racemic) [compound 558]
7,44 nM,CCC(C)Oc1ccc(S(C)(=O)=O)cc1C(=O)N1CCN(c2ccc(S(=O)(=O)CC)cc2F)CC1 (racemic) [compound 568]
8,20 nM,"CC(Oc1ccc(S(C)(=O)=O)cc1C(=O)N1CCN(c2ccc(C(F)(F)F)cn2)CC1)C(F)(F)F (single isomer, unassigned) [compound 464]"
9,40 nM,"CC(Oc1ccc(S(C)(=O)=O)cc1C(=O)N1CCN(c2ccc(C(F)(F)F)cn2)CC1)C(F)(F)F (single isomer, unassigned) [compound 465]"
10,26 nM,"CC(Oc1ccc(S(C)(=O)=O)cc1C(=O)N1CCN(c2ccc(C(F)(F)F)cc2F)CC1)C(F)(F)F (single isomer, unassigned) [compound 466]"
11,20 nM,"CC(Oc1ccc(S(C)(=O)=O)cc1C(=O)N1CCN(c2ccc(C(F)(F)F)cc2)CC1)C(F)(F)F (single isomer, unassigned) [compound 468]"
12,20 nM,"CC(Oc1ccc(S(C)(=O)=O)cc1C(=O)N1CCN(c2ccc(C(F)(F)F)cc2)CC1)C(F)(F)F (single isomer, unassigned) [compound 469]"
13,39 nM,"CC(=O)c1ccc(N2CCN(C(=O)c3cc(S(C)(=O)=O)ccc3OC(C)C)CC2)c(F)c1 [Example 1, 1-{3-fluoro-4-[4-(2-isopropoxy-5-methanesulfonyl-benzoyl)-piperazin-1-yl]-phenyl}-ethanone]"
14,12 nM,"CC(C)Oc1ccc(S(C)(=O)=O)cc1C(=O)N1CCN(c2ccc(C(F)(F)F)cc2F)CC1 [Example 5, [4-(2-fluoro-4-trifluoromethyl-phenyl)-piperazin-1-yl]-(2-isopropoxy-5-methanesulfonyl-phenyl)-methanone]"
15,15 nM,"CC(=O)c1ccc(N2CCN(C(=O)c3cc(S(C)(=O)=O)ccc3OCC3CC3)CC2)c(F)c1 [Example 15, 1-{4-[4-(2-cyclopropylmethoxy-5-methanesulfonyl-benzoyl)-piperazin-1-yl]-3-fluoro-phenyl}-ethanone]"
16,12 nM,"CS(=O)(=O)c1ccc(OCC(F)(F)F)c(C(=O)N2CCN(c3ccc(C(F)(F)F)cc3F)CC2)c1 [Example 28, [4-(2-fluoro-4-trifluoromethyl-phenyl)-piperazin-1-yl]-[5-methanesulfonyl-2-(2,2,2-trifluoro-ethoxy)-phenyl]-methanone]"
17,50 nM,"COCCOc1ccc([N+](=O)[O-])cc1C(=O)N1CCN(c2ccc(C(C)=O)cc2F)CC1 [Example 54, 1-(3-Fluoro-4-{4-[2-(2-methoxy-ethoxy)-5-nitro-benzoyl]-piperazin-1-yl}-phenyl)-ethanone]"
18,17 nM,"CC(C)Oc1ccc([N+](=O)[O-])cc1C(=O)N1CCN(c2ccc(C(F)(F)F)cc2)CC1 [Example 62, (2-Isopropoxy-5-nitro-phenyl)-[4-(4-trifluoromethyl-phenyl)-piperazin-1-yl]-methanone]"
19,28 nM,"O=C(c1cc([N+](=O)[O-])ccc1OCC1CC1)N1CCN(c2ccc(C(F)(F)F)cc2)CC1 [Example 63, (2-Cyclopropylmethoxy-5-nitro-phenyl)-[4-(4-trifluoromethyl-phenyl)-piperazin-1-yl]-methanone]"
20,25 nM,"O=C(c1cc([N+](=O)[O-])ccc1OCC1CCC1)N1CCN(c2ccc(C(F)(F)F)cc2)CC1 [Example 64, (2-Cyclobutylmethoxy-5-nitro-phenyl)-[4-(4-trifluoromethyl-phenyl)-piperazin-1-yl]-methanone]"

row,Structure (SMILES),IC50
1,"CCC(C)Oc1ccc([N+](=O)[O-])cc1C(=O)N1CCN(c2ccc(C(F)(F)F)cc2)CC1 (racemic) [Example 78, Rac-(2-sec-Butoxy-5-nitro-phenyl)-[4-(4-trifluoromethyl-phenyl)-piperazin-1-yl]-methanone]",12 nM

# Source: patent publication US7605163B2, “Benzoyl-piperazine derivatives” (Hoffmann-La Roche Inc., priority 2003, dated 2009)
